Experimental data: US20220324835A1 (Nurix Therapeutics, Inc., priority 2018, published 2022)

Legend:
Cbl-b [1] = target: T1, Cbl-b (Homo sapiens, UniProt Q13191); experiment: Cbl-b activity assay (Cbl-b inhibition assay), TR-FRET of Cbl-b interaction with UbcH5B-Ub; format: biochemical
Summary of the method: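 UbcH5B (C85K) conjugated to N-terminally Bodipy-Fluorescein-labeled ubiquitin served as the fluorescent partner. After compound preincubation, Src kinase (60 nM) with 1 mM ATP and 5 mM MgCl2 (final) was added for 1.5 h, followed by a further 1 h incubation. Some values were obtained with 50 mM NaCl and 30 nM Src.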

Cbl-b (residues 36-427) = Cbl-b (residues 36-427) (Homo sapiens, UniProt Q13191); experiment: Cbl-b binding assay (SPR, Biacore T200); details: 20° C., 1:1 binding model
Procedure: SPR data was collected on a Biacore T200 (GE Healthcare) using a NeutrAvidin (Invitrogen) capture surface that was generated on a polycarboxylate hydrogel sensor chip of medium charge density (XanTec Bioanalytics GmbH) at 20° C. The surface was prepared using 20 mM HEPES, pH 7.5, 100 mM NaCl, 0.5 mM TCEP, 0.01% Triton X-100 as the immobilization buffer. Neutravidin was coupled to the sensor chip through EDC/NHS amine coupling. All steps were performed using a flow rate of 10 μl/min. First, the chip was preconditioned with a 3-min injection of 1 M NaCl, 0.1 M Borate followed by a 10-min equilibration in immobilization buffer. The surface was activated by a 5-min injection of 100 mM EDC/50 mM NHS. Next, 250 μg/mL NeutrAvidin buffered in 10 mM sodium acetate buffer, pH 5.0 was injected over the surface for 2 min. The surface was deactivated with 1 M Tris, pH 8.5 for 7 min then re-equilibrated in immobilization buffer for 7 min. […] Flow cell 1 served as a reference surface and was prepared without protein. All binding measurements were made in 20 mM HEPES, pH 7.5, 100 mM NaCl, 0.5 mM TCEP, 0.01% Triton X-100, 2% DMSO (referred as assay buffer) at 20° C. Compounds, prepared in assay buffer, were diluted from atop concentration of either 100 μM or 50 μM using either a 2- or 3-fold dilution scheme containing 8 or 10 points. Samples were injected for 50 s at 50 μl/min. Dissociation time varied from 90-180 s, depending on anticipated potency. The surface was regenerated by injection of 0.3 M NaCl, prepared in assay buffer for 20 s at 10 μl/min. Positive and negative control samples were run between each compound to monitor surface integrity.
Column marked with an asterisk (*) were tested as described above with assay buffer containing 50 mM NaCl instead of 100 mM NaCl and 30 nM Src kinase instead of 60 nM Src kinase. The resulting data for the Cbl-b binding assay was solvent corrected and double referenced prior to analysis. All data were globally fit to a steady-state affinity and kinetic binding model where applicable). Fit parameters were derived from a 1:1 binding model using the Biacore T200 Evaluation Software V2.0 (GE Healthcare) (Table 2).

Cbl-b [2] = target: T1, Cbl-b; experiment: Cbl-b inhibition assay (Cbl-b activity assay, FRET, Biological Example 1; 100 mM NaCl, 60 nM Src kinase); format: biochemical; details: upper bound stated in text lists; read-out: IC50 values in the Cbl-b inhibition assay of Biological Example 1
Summary of the method: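 FRET read-out: loss of signal marks inhibition. Mix = biotin-Avi-Cbl-b (N-term), Src kinase, UbcH5B-Ub(Bodipy-FL, irreversible conjugate), streptavidin-Tb, assay buffer.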

[3] = assay buffer with 100 mM NaCl, 60 nM Src kinase, read-out: Cbl-b activity IC50
[4] = * assay buffer containing 50 mM NaCl instead of 100 mM NaCl and 30 nM Src kinase instead of 60 nM, read-out: Cbl-b activity IC50 (μM)*

Cbl-b (residues 36-427), sequence (Q13191 36-427): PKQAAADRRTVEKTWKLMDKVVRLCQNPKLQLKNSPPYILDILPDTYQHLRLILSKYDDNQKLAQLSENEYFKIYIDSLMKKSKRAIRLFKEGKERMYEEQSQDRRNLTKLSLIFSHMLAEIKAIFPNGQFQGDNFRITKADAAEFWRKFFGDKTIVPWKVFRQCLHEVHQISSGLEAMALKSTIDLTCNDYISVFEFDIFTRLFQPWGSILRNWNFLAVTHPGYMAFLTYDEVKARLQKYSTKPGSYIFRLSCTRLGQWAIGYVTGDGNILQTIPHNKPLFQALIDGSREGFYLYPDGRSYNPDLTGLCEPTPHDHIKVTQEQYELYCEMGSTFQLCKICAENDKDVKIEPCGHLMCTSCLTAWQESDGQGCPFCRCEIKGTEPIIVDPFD
T1 sequence (Q13191 36-427): as above

Row | Structure (SMILES) | IC50 (Cbl-b [1]; [3]) | Kd (Cbl-b (residues 36-427)) | IC50 (Cbl-b [2]) | IC50 (Cbl-b [1]; [4])
1 | C[C@H](Sc1nncn1C)c1cccc(NC(=O)c2cccc(OC(F)(F)F)c2)c1 [Compound 79, (S)-N-(3-(1-((4-methyl-4H-1,2,4-triazol-3-yl)thio)ethyl)phenyl)-3-(trifluoromethoxy)benzamide] | 3 to 10 µM | 3 to 10 µM | ≤ 10 µM | 
2 | Cc1cncc(C(=O)Nc2cccc([C@H](C)Sc3nncn3C)c2)n1 [Compound 82, (S)-6-methyl-N-(3-(1-((4-methyl-4H-1,2,4-triazol-3-yl)thio)ethyl)phenyl)pyrazine-2-carboxamide] | 1 to 3 µM | 3 to 10 µM | ≤ 10 µM | 
3 | C[C@H](Sc1nncn1C)c1cccc(NC(=O)c2cc(C(F)(F)F)c3ccccc3n2)c1 [Compound 83, (S)-N-(3-(1-((4-methyl-4H-1,2,4-triazol-3-yl)thio)ethyl)phenyl)-4-(trifluoromethyl)quinoline-2-carboxamide] | 1 to 3 µM | 3 to 10 µM | ≤ 10 µM | 
4 | C[C@H](Sc1nncn1C)c1cccc(NC(=O)c2cc(NS(=O)(=O)CCO)ccn2)c1 [Compound 86, 4-(2-hydroxyethylsulfonylamino)-N-[3-[(1S)-1-[(4-methyl-1,2,4-triazol-3-yl)sulfanyl]ethyl]phenyl]pyridine-2-carboxamide] | 3 to 10 µM | > 10 µM | ≤ 10 µM | 
5 | C[C@H](Sc1nncn1C)c1cccc(NC(=O)c2cccc(CF)n2)c1 [Compound 87, 6-(fluoromethyl)-N-[3-[(1S)-1-[(4-methyl-1,2,4-triazol-3-yl)sulfanyl]ethyl]phenyl]pyridine-2-carboxamide] | 1 to 3 µM | 1 to 3 µM | ≤ 10 µM | 
6 | C[C@H](Sc1nncn1C)c1cccc(NC(=O)c2cccc3scnc23)c1 [Compound 88, N-[3-[(1 S)-1-[(4-methyl-1,2,4-triazol-3-yl)sulfanyl]ethyl]phenyl]-1,3-benzothiazole-4-carboxamide] | 1 to 3 µM | 3 to 10 µM | ≤ 10 µM | 
7 | CCOc1cccc(C(=O)Nc2cccc([C@H](C)Sc3nncn3C)c2)n1 [Compound 90, 6-Ethoxy-N-[3-[(1S)-1-[(4-methyl-1,2,4-triazol-3-yl)sulfanyl]ethyl]phenyl]pyridine-2-carboxamide] | 1 to 3 µM | 3 to 10 µM | ≤ 10 µM | 
8 | CC(Sc1nncn1C)c1ccc(F)c(NC(=O)c2cccc(C(F)(F)F)n2)c1 (stereo not shown) [Compound 95, N-(2-fluoro-5-(1-((4-methyl-4H-1,2,4-triazol-3-yl)thio)ethyl)phenyl)-6-(trifluoromethyl)picolinamide] | 1 to 3 µM | 1 to 3 µM | ≤ 10 µM | 
9 | C[C@@H](Sc1nncn1C)c1ccc(F)c(NC(=O)c2cccc(C(F)(F)F)n2)c1 [Compound 95b, (R)-N-(2-fluoro-5-(1-((4-methyl-4H-1,2,4-triazol-3-yl)thio)ethyl)phenyl)-6-(trifluoromethyl)picolinamide] | 3 to 10 µM | > 10 µM | ≤ 10 µM | 
10 | C[C@H](Sc1nncn1C)c1ccc(F)c(NC(=O)c2ccc3ccccc3n2)c1 [Compound 96a, (S)-N-(2-fluoro-5-(1-((4-methyl-4H-1,2,4-triazol-3-yl)thio)ethyl)phenyl)quinoline-2-carboxamide] | 1 to 3 µM | 1 to 3 µM | ≤ 10 µM | 
11 | COc1ccc(C(C)Sc2nncn2C)cc1NC(=O)c1ccc2ccccc2n1 (stereo not shown) [Compound 97, N-(2-methoxy-5-(1-((4-methyl-4H-1,2,4-triazol-3-yl)thio)ethyl)phenyl)quinoline-2-carboxamide] | 1 to 3 µM | 3 to 10 µM | ≤ 10 µM | 1 to 3 µM
12 | C[C@H](Sc1nncn1C1CC1)c1cccc(NC(=O)c2cc3ccccc3cn2)c1 [Compound 99, (S)-N-(3-(1-((4-cyclopropyl-4H-1,2,4-triazol-3-yl)thio)ethyl)phenyl)isoquinoline-3-carboxamide] | 0.301 to 1 µM | 3 to 10 µM | ≤ 1 µM | 3 to 10 µM
13 | C[C@H](Sc1nncn1C)c1ccnc(NC(=O)c2cccc(C(F)(F)F)n2)c1 [Compound 102b, (S)-N-(4-(1-((4-methyl-4H-1,2,4-triazol-3-yl)thio)ethyl)pyridin-2-yl)-6-(trifluoromethyl)picolinamide] | 1 to 3 µM | 1 to 3 µM | ≤ 10 µM | 1 to 3 µM
14 | C[C@H](Sc1nncn1C)c1ccnc(NC(=O)c2ccc3cccc(F)c3n2)c1 [Compound 107, (S)-8-fluoro-N-(4-(1-((4-methyl-4H-1,2,4-triazol-3-yl)thio)ethyl)pyridin-2-yl)quinoline-2-carboxamide] | 1 to 3 µM | 3 to 10 µM | ≤ 10 µM | 
15 | C[C@H](Sc1nncn1C)c1ccnc(NC(=O)c2ccc3c(n2)CCCC3)c1 [Compound 108, (S)-N-(4-(1-((4-methyl-4H-1,2,4-triazol-3-yl)thio)ethyl)pyridin-2-yl)-5,6,7,8-tetrahydroquinoline-2-carboxamide] | 1 to 3 µM | 3 to 10 µM | ≤ 10 µM | 
16 | C[C@H](Sc1nncn1C)c1ccnc(NC(=O)c2cc3c(cn2)CCCC3)c1 [Compound 109, (S)-N-(4-(1-((4-methyl-4H-1,2,4-triazol-3-yl)thio)ethyl)pyridin-2-yl)-5,6,7,8-tetrahydroisoquinoline-3-carboxamide] | 3 to 10 µM | 3 to 10 µM | ≤ 10 µM | 
17 | C[C@H](Sc1nncn1C)c1ccnc(NC(=O)c2cccc(C(C)(F)F)n2)c1 [Compound 110, (S)-6-(1,1-difluoroethyl)-V-(4-(1-((4-methyl-4H-1,2,4-triazol-3-yl)thio)ethyl)pyridin-2-yl)picolinamide] | 0.301 to 1 µM | 3 to 10 µM | ≤ 1 µM | 
18 | C[C@H](Sc1nncn1C)c1ccnc(NC(=O)c2cc(C(F)(F)F)c3ccccc3n2)c1 [Compound 111, (S)-N-(4-(1-((4-methyl-4H-1,2,4-triazol-3-yl)thio)ethyl)pyridin-2-yl)-4-(trifluoromethyl)quinoline-2-carboxamide] | 3 to 10 µM | 3 to 10 µM | ≤ 10 µM | 
19 | C[C@H](Sc1nncn1C)c1ccnc(NC(=O)c2ccc3ccccc3n2)c1 [Compound 112, (S)-N-(4-(1-((4-methyl-4H-1,2,4-triazol-3-yl)thio)ethyl)pyridin-2-yl)quinoline-2-carboxamide] | 0.301 to 1 µM | 3 to 10 µM | ≤ 1 µM | 1 to 3 µM
20 | C[C@H](Sc1nncn1C)c1ccnc(NC(=O)c2cc(C(F)(F)F)c(Cl)cn2)c1 [Compound 114, (S)-5-chloro-N-(4-(1-((4-methyl-4H-1,2,4-triazol-3-yl)thio)ethyl)pyridin-2-yl)-4-(trifluoromethyl)picolinamide] | 3 to 10 µM | > 10 µM | ≤ 10 µM | 
21 | C[C@H](Sc1nncn1C)c1ccnc(NC(=O)c2cccc(S(F)(F)(F)(F)F)c2)c1 [Compound 116, N-[4-[(1S)-1-[(4-methyl-1,2,4-triazol-3-yl)sulfanyl]ethyl]-2-pyridyl]-3-(pentafluoro-λ^6-sulfanyl)benzamide] | 3 to 10 µM | 3 to 10 µM | ≤ 10 µM | 
22 | C[C@H](Sc1nncn1C)c1ccnc(NC(=O)c2cccc(C3CC3)n2)c1 [Compound 117, 6-cyclopropyl-N-[4-[(1S)-1-[(4-methyl-1,2,4-triazol-3-yl)sulfanyl]ethyl]-2-pyridyl]pyridine-2-carboxamide] | 1 to 3 µM | 3 to 10 µM | ≤ 10 µM | 
23 | C[C@H](Sc1nncn1C)c1ccnc(NC(=O)c2nc3ccccc3s2)c1 [Compound 121, N-[4-[(1S)-1-[(4-methyl-1,2,4-triazol-3-yl)sulfanyl]ethyl]-2-pyridyl]-1,3-benzothiazole-2-carboxamide] | 3 to 10 µM | 3 to 10 µM | ≤ 10 µM | 
